In data set [1] the test system is viral strain HIV-Lai. The data set is described as follows: Example 2: internal p24 viral protein by flow cytometry with different caspase inhibitors. The format is cell-based, HIV-1. The following applies: 10 μM. As for the experimental part:
(§1) FIG. 11. Analysis by flow cytometry of the internal viral protein p24 (A) and of the fall in the mitochondrial transmembrane potential (% Δφm low; B) on the 5th (d5) and 7th (d7) day post-infection in primary CD4+ T cells infected by the strain HIV-Lai, after stimulation by Concanavalin A and IL-2 and in the presence or absence of 10 μM of different caspase inhibitors.
(§2) In order to evaluate the change in the transmembrane potential of the inner mitochondrial membrane, the cells were labelled with a fluorescent probe DIOC6 (Molecular Probes, Invitrogen), at a concentration of 40 nM, and incubated for 15 minutes at 37° C. Viral replication was evaluated by internal labelling of the p24 viral protein using an anti-p24-PE antibody (KC-57, Coulter Corp, Beckman).
(§3) Primary CD4 T cells were infected by the viral strain HIV-Lai and then stimulated by ConA/IL-2 in the presence or absence of Q-VD-OPH, Q-DEVD-OPH (casp-3 inhibitor), Q-LEDH-OPH (caspase-9 inhibitor) and Q-IETD-OPH (caspase-8 inhibitor) at 10 μM for each of the inhibitors. On days 5 and 7 post-infection, the internal p24 viral protein is measured by flow cytometry after fixation and permeabilization of the CD4 T cells. […] Death was evaluated by analysis of the fall in the mitochondrial transmembrane potential (% Δφm low) using the probe DIOC6 by flow cytometry (FIG. 11B). […]
Background: In flow cytometry, cells or beads pass a laser one at a time.

In data set [2] the test system is Primary CD4 T cells infected by the viral strain HIV-Lai. The data set is described as follows: Example 2: death by fall in mitochondrial transmembrane potential in infected primary CD4 T cells. Format: cell-based, human. Particulars: 10 μM. As for the experimental part:
as §1, §2, §3

Data set [3] concerns HIV viral proteins. The data set is described as follows: Example 2: immunoblot of HIV viral proteins in infected primary CD4 T cells. Format: cell-based, HIV-1. Particulars: versus control cultures. As for the experimental part:
FIG. 12. Analysis by immunoblot of the quantity of HIV viral proteins produced from extracts of primary CD4 T cells infected by the strain HIV-Lai in the presence or absence of different caspase inhibitors.
20 μg extracts of total lysate prepared with 1% NP40 were boiled for 5 minutes in Laemmli buffer containing 2% SDS and 10% 2-β-mercaptoethanol, then deposited on 10-20% polyacrylamide gradient gels (Invitrogen). After transfer of the proteins, the immunoblots were incubated with the following primary antibodies: anticaspase-3, anticaspase-8 and anticaspase-9 (Cell Signaling), anti-PARP (Pharmingen) and anti-Tubulin (Santa-Cruz).
Primary CD4 T cells were infected by the viral strain HIV-Lai and then stimulated by ConA/IL-2 in the presence or absence of Q-VD-OPH, Q-DEVD-OPH (casp-3 inhibitor), Q-LEDH-OPH (caspase-9 inhibitor) and Q-IETD-OPH (caspase-8 inhibitor) at 10 μM for each of the inhibitors. On days 5 and 7 post-infection, the internal p24 viral protein is measured by flow cytometry after fixation and permeabilization of the CD4 T cells. […] Death was evaluated by analysis of the fall in the mitochondrial transmembrane potential (% Δφm low) using the probe DIOC6 by flow cytometry (FIG. 11B). […] Extracts of primary CD4 T cells infected in the presence or absence of the different caspase inhibitors as well as QVD-OPH were analyzed by immunoblot for the HIV viral proteins (FIG. 12).

Data set [4] relates to apoptosis. Particulars: Caserta et al., 2003; cited from earlier work.
The subject of data set [5] is HIV-1 virus. Particulars: cited from earlier work.
Data set [6] relates to cells infected by HIV. The following applies: cells infected by HIV (Petit et al., 2002), cited from earlier work.
The subject of data set [7] is lymphocytes stimulated by 1 μg/ml of anti-CD-3. The data set is described as follows: lymphocyte proliferation test with CFSE. Format: cell-based, human. As to the method:
FIG. 13. Analysis by flow cytometry of lymphocyte proliferation after 4 and 5 days' stimulation by 1 μg/ml of anti-CD-3, in the presence or absence of HIV antiproteases or of QVD-OPH.
The PBMCs are incubated in the presence of 1 μM of CFSE for 7 minutes at 37° C. The cells are taken up at 1·10^6/ml and then placed in culture and activated by an anti-CD3 at 1 μg/ml (Immunotech).
A lymphocyte proliferation study was conducted with the fluorescent probe CFSE, which allows cell division to be monitored.

Data set [8] concerns cells stimulated by anti-CD3. Format: cell-based. Particulars: human, 1 day, 50 μM. As to the method:
FIG. 14. Analysis of the fall in the mitochondrial transmembrane potential (% Δφm low) by flow cytometry starting from cells stimulated by 1 μg/ml of anti-CD-3 in the presence or absence of different HIV antiproteases and of QVD-OPH.
as §2
The cell toxicity was evaluated by analysis of the fall in the mitochondrial transmembrane potential (% Δφm low) using the probe DIOC6, by flow cytometry. The cells stimulated by anti-CD3 were analyzed in the same way on the day following activation.

The test system of data set [9] is Cytochrome c, Smac/Diablo and Endonuclease G in primary CD4+ T cells infected with HIV-Lai. The data set can be described thus: immunoblot of release of apoptogenic mitochondrial factors after subcellular fractionation. Format: cell-based, human. Particulars: 10 μM, day 5 after infection. As for the experimental part:
FIG. 3: Immunoblot (Western blot) showing the effect of Q-VD-OPh on mitochondrial damage resulting from viral replication. Primary CD4+ T cells were infected with HIV-Lai and stimulated with a ConA/IL-2 cocktail and then treated or not treated with 10 μM of Q-VD-OPh (QVD) and/or 10 μM of pepstatin A (PA) immediately after stimulation and then 36 hours (day 3) and 96 hours (day 4) after infection. On the 5th day post-infection, the cells were fractionated into two parts: the membrane fraction and the cytosol fraction. The relocalization of the apoptogenic factors Cytochrome c (Cyt c), Smac/Diablo and Endonuclease G (EndoG) was then evaluated by immunotransfer (Western blot). The proteins Cytochrome c, Smac/Diablo and EndoG were detected using the antibodies indicated above. The proteins Cox IV and actin detected by means of the anti-subunit IV antibodies (clone 1068 Molecular Probe) and anti-actin antibodies (SIGMA), respectively, were used as the control for the fractionation procedure and as the control for the protein load of the gel, respectively. […]
The cytosol and mitochondrial fractions were obtained by the subcellular fractionation technique based on selective permeabilization by digitonin according to Foghsgaard et al. {Foghsgaard, 2001}. […] The protein concentration of the cytosol and mitochondrial fractions was determined by the bicinchoninic acid (BCA) method (Bio-Rad). […]
For orientation: A western blot detects proteins with antibodies after separation by electrophoresis.

The subject of data set [10] is primary strains of the HIV-1 virus. The data set can be described thus: replication of primary HIV-1 strains in CD4+ T lymphocytes (p24). The following applies: 1 μM. Format: cell-based. As to the method: FIG. 7: Graphic representation showing the effect of Q-VD-OPh on primary HIV-1 strains. In all cases (A, B and C), the CD4+ T lymphocytes were stimulated with concanavalin A and IL2 (stimulation being carried out before or during administration of Q-VD-OPh), […], immediately after infection and then 36 hours (d3) and 96 hours (d4) post-infection. A. Analysis by flow cytometry of viral replication in CD4+ T lymphocytes infected with the HIV-1Lai virus or with the serum of a chronic HIV+ patient (strain with X4/R5 dual tropism) and then cultivated in the absence or presence (+Q-VD) of Q-VD-OPh. The percentage of CD4+ cells infected by HIV was determined after intracellular labelling of the p24 viral antigen on the 5th day post-infection in the case of the HIV-Lai virus and on the 6th day post-infection in the case of the serum. […] B. Quantification of viral replication (on the left) and of cell death by measurement of mitochondrial depolarization (on the right) in CD4+ T lymphocytes infected with the serum of the chronic HIV+ patient. […]
The CD4^+ cells were incubated for 2 hours at 37° C. in the presence of 10 ng/ml of HIV-1 virus of strain Lai or 50 ng/ml of primary strains of the HIV-1 virus. […] The HIV p24 antigen, the control for the viral load, was measured in the cell culture supernatants by an ELISA test (Abbott). […]

“Also recorded” adds a separate entry of the source. Read-outs that look alike come from different tables or passages of the source. Where a SMILES comes first, the peptide text is derived from it. [ ]: non-standard residue; d: D form. The star is where a group is joined. Sta = CC(C)C[C@H](N)[C@@H](O)CC(=O)O; Isovaleryl = CC(C)CC(=O)*; Cbz = O=C(OCc1ccccc1)*; CH2F = FC*

Regarding Q-DEVD-OPH, the “inhibition of viral replication (p24)” value in data set [1] (d5) is on record as “weak effect”; in [1] (d7), “absence of protection”. Also, the “death, fall in the mitochondrial transmembrane potential (% Δφm low)” value in data set [2] is on record as “absence of effect”. Besides, in data set [3], the “quantity of viral proteins produced” value is recorded as “slightly lower”.

Consider `CC(C)[C@H](NC(=O)OCc1ccccc1)C(=O)N[C@@H](C)C(=O)N[C@@H](CC(=O)O)C(=O)CF` [z-VAD-fmk, N-benzyloxycarbonyl-Val-Ala-Asp-fluoromethyl ketone] (Cbz-Val-Ala-Asp-CH2F), for which, in data set [4], the inhibition of apoptosis entry is recorded as “inhibits apoptosis in a dose-dependent manner”. The “effect on viral replication” value in [5] (T-leukaemia cells (CEM) or PBMC exposed to HIV-1 (Chinnaiyan et al., 1997)) is listed as “increasing viral replication”. Moreover, in data set [5] (activated PBMCs from HIV-1-positive asymptomatic patients (Chinnaiyan et al., 1997)), the endogenous viral replication result was “stimulating endogenous viral replication”. Besides, in data set [5] (in vitro (Gandhi et al., 1998; Petit et al., 2002)), the “inhibition of viral replication” value is given as “nor does it inhibit viral replication; also recorded: did not enable viral replication to be inhibited”. Further, in data set [6], the “apoptotic phenotype (condensation and fragmentation of the nuclear chromatin)” value was “prevents the apoptotic phenotype”. In addition, the “prevention of mitochondrial depolarization, apoptosis or cell death” value in data set [6] is “does not inhibit apoptosis”; in [6] (listed as zVAD-kmk), “does not prevent either mitochondrial depolarization or cell death”.

For the compound `CC(C)(C)NC(=O)[C@@H]1C[C@@H]2CCCC[C@@H]2CN1C[C@@H](O)[C@H](Cc1ccccc1)NC(=O)[C@H](CC(N)=O)NC(=O)c1ccc2ccccc2n1` [Saquinavir], the “lymphocyte proliferation (CFSE)” value in data set [7] is “block the proliferation”. In addition, in [8], the “fall in Δφm” value is on record as 70-80%.

With `CC(C)CC(=O)N[C@H](C(=O)N[C@H](C(=O)N[C@@H](CC(C)C)[C@@H](O)CC(=O)N[C@@H](C)C(=O)N[C@@H](CC(C)C)[C@@H](O)CC(=O)O)C(C)C)C(C)C` [pepstatin A] (Isovaleryl-VV[Sta]A[Sta]-OH), the “mitochondrial damage: apoptogenic factors Cytochrome C, Smac/Diablo and EndoG in the cytosol fraction” value in [9] is “no effect”.

On to `O=c1[nH]cnc2c1ncn2[C@H]1CC[C@@H](CO)O1` [ddl], for which the “replication of five primary HIV-1 isolates of R5 tropism” value in [10] is recorded as “strong inhibition of viral replication”.

`COC(=O)CC(NC(=O)OC(C)(C)C)C(=O)CF` [Boc-D-fmk, tert-butyloxycarbonyl-Asp(O-methyl)-fluoromethyl ketone]: in [4], the inhibition of apoptosis entry is “inhibits apoptosis in a dose-dependent manner”.

Turning to `CC(C)(C)NC(=O)[C@@H]1CN(Cc2cccnc2)CCN1C[C@@H](O)C[C@@H](Cc1ccccc1)C(=O)N[C@H]1c2ccccc2C[C@H]1O` [Indinavir], the “lymphocyte proliferation (CFSE)” value in [7] (50 μM, after 4 and 5 days' stimulation) is “block the proliferation”. The “fall in Δφm” value in [8] is listed as 70-80%.

The values are drawn from patent US9833492B2, “Combinations of a caspase inhibitor and an antiviral agent” (INSTITUT NATIONAL DE LA SANTE ET DE LA RECHERCHE MEDICALE …, priority 2007, dated 2017).
